Among the data in article PMC3991664, “Growth Inhibitory, Bactericidal, and Morphostructural Effects of Dehydrocostus Lactone from Magnolia sieboldii Leaves on Antibiotic-Susceptible and -Resistant Strains of Helicobacter pylori” (PLoS ONE, 2014) are IC50 values, retold here.

The experiment addresses T1, urease (UreB subunit) (Helicobacter pylori, UniProt P69996).
T1 construct: native crude urease of H. pylori ATCC 43504 (UreA and UreB subunits); with UreA (urease subunit)
The experiment is described as follows: urease activity inhibition in crude urease preparation, indophenol (ammonia release) assay; Western blot of subunits. Type of experiment: biochemical. On the technique in general: A western blot detects proteins with antibodies after separation by electrophoresis.

T1 sequence (P69996 whole entry): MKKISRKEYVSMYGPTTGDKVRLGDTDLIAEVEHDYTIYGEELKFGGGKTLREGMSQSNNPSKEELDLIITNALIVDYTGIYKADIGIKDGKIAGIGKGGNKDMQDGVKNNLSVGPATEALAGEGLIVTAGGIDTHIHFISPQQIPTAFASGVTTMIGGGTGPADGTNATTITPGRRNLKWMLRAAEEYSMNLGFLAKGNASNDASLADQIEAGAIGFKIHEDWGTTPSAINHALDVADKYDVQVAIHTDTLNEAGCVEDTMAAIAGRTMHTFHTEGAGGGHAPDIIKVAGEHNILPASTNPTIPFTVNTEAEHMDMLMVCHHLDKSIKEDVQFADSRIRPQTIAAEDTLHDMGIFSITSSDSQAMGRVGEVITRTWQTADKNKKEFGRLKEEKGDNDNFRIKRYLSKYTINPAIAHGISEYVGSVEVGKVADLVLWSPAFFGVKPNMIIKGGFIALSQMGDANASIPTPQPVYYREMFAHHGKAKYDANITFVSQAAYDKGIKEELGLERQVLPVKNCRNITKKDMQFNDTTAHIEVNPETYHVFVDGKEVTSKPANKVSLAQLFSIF

As for `O=C(O[C@@H]1Cc2c(O)cc(O)cc2O[C@@H]1c1cc(O)c(O)c(O)c1)c1cc(O)c(O)c(O)c1` [(–)-epigallocatechin gallate], the IC50 was determined as 30 µM.

One may read the IC50 as the concentration needed to halve the response being measured. A higher IC50 goes with weaker potency in that assay.
